Experimental data reported in PubChem BioAssay (NCI).
Values joined by “and” are separate entries in the source; they are usually repeats but may differ in a detail not shown here. Equal entries are not always repeated.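 Dose response: 5 concentrations. Exposure: 48 h. Format: 96-well plates. Endpoint: linear interpolation; highest concentration if not reached. GI50 = concentration required for 50% inhibition of growth. TGI is the concentration that stops growth completely.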

Key:
Test in all cases: NCI anticancer screen, dose series, 48 h
A498 renal = tested on: A498 renal
MALME-3M melanoma = tested on: MALME-3M melanoma
SK-OV-3 ovarian = tested on: SK-OV-3 ovarian
MOLT-4 leukemia = tested on: MOLT-4 leukemia
ACHN renal = tested on: ACHN renal
NCI-H460 lung = tested on: NCI-H460 lung
UACC-257 melanoma = tested on: UACC-257 melanoma
PC-3 prostate = tested on: PC-3 prostate
SK-MEL-5 melanoma = tested on: SK-MEL-5 melanoma
T-47D breast = tested on: T-47D breast
CAKI-1 renal = tested on: CAKI-1 renal
SF-295 CNS = tested on: SF-295 CNS
NCI/ADR-RES ovarian = tested on: NCI/ADR-RES ovarian

Row | Compound | TGI (A498 renal) [µM] | TGI (MALME-3M melanoma) | TGI (SK-OV-3 ovarian) [µM] | TGI (MOLT-4 leukemia) | TGI (ACHN renal) | TGI (NCI-H460 lung) | TGI (UACC-257 melanoma) | TGI (PC-3 prostate) | TGI (SK-MEL-5 melanoma) | TGI (T-47D breast) | TGI (CAKI-1 renal) | TGI (SF-295 CNS) | TGI (NCI/ADR-RES ovarian) | GI50 (A498 renal) | GI50 (MALME-3M melanoma) | GI50 (ACHN renal) | GI50 (NCI-H460 lung) | GI50 (UACC-257 melanoma) | GI50 (PC-3 prostate) | GI50 (T-47D breast)
1 | Oc1nc(N/N=C/c2ccccc2)[nH]c1/C=C1\C=Nc2ccccc21 | > 100 | > 100 µM | > 100 | > 100 µM | > 100 µM | > 100 µM | > 100 µM | > 100 µM | > 100 µM | > 100 µM | > 100 µM | > 100 µM | > 100 µM |  |  |  |  |  |  | 
2 | CCOP(=O)(OCC)C1(O)CC(n2cc(C)c(=O)[nH]c2=O)OC1CO (configuration not stated) | > 100 | > 100 µM | > 100 |  | > 100 µM | > 100 µM | > 100 µM | > 100 µM | > 100 µM | > 100 µM | > 100 µM | > 100 µM | > 100 µM |  |  |  |  |  |  | 
3 | C/C=C/[C@H]1O[C@@](O)([C@@H](C)[C@H](O)[C@H](C)[C@H]2OC(=O)/C(OC)=C/C(C)=C/[C@@H](C)[C@@H](O)[C@@H](CC)[C@@H](O)[C@H](C)C/C(C)=C/C=C/[C@@H]2OC)C[C@H](OC2CC(O)C(OC(N)=O)C(C)O2)[C@@H]1C (some centres not stated) | 33.1 | 0.73 µM | 25.4 |  | 16.7 µM | 14.4 µM | 0.568 µM | 15.1 µM | 0.231 µM | 2.12 µM | 14.4 µM | 0.893 µM | 26.8 µM |  |  |  |  |  |  | 
4 | CCNc1ncnc2c1nnn2CC | > 100 | > 100 µM | > 100 | > 100 µM | > 100 µM |  | > 100 µM | > 100 µM | > 100 µM | > 100 µM | > 100 µM | > 100 µM | > 100 µM |  |  |  |  |  |  | 
5 | CSc1nc(C#N)c(N)n1C | > 100 | > 100 µM | > 100 | > 100 µM | > 100 µM | > 100 µM | > 100 µM | > 100 µM | > 100 µM | > 100 µM | > 100 µM | > 100 µM | > 100 µM |  |  |  |  |  |  | 
6 | COc1ccc2c(-c3ccc(OCCN(C)C)cc3)c(Oc3ccc(Cl)cc3)c(=O)oc2c1 | 29.4 | 3.48 µM | 29.3 | 6.09 µM | 20.9 µM | > 42.4 µM | 3.75 µM | 19.7 µM | 3.19 µM | > 100 µM | 31 µM | 5.42 µM | > 62.5 µM |  |  |  |  |  |  | 
7 | OC(CCN1CCN(CCOC(c2ccccc2)c2ccccc2)CC1)c1ccc(Br)cc1 (configuration not stated) | 22 | 24.4 µM | 27 |  | 22.9 µM | 26 µM | 12.6 µM | 23 µM | 12.6 µM | 33.4 µM | 26.9 µM | 29.8 µM | 21.9 µM |  |  |  |  |  |  | 
8 | COC1=CC(=O)c2c(O)c3c(c(O)c2C1=O)C[C@](C)(O)C[C@@H]3O | 20.1 | 2.59 µM | 41.6 | 31.4 µM | 16 µM | 6.84 µM | 5.28 µM | > 42.5 µM | 2.64 µM | 22.3 µM | 45.5 µM | 11.5 µM | 29 µM |  |  |  |  |  |  | 
9 | CC(C)C(C/C=C1/CC(CO)(COC(=O)C2CCCCC2)OC1=O)C(C)C (configuration not stated) | 76.2 | 42.3 µM | > 100 | 94.8 µM | 30.2 µM | 89.6 µM | 78.7 µM | 35.6 µM | > 100 µM | 45.9 µM | 37.8 µM | 29 µM | 42.7 µM |  |  |  |  |  |  | 
10 | COC(=O)/C(=C\c1ccco1)P(=O)(OC)OC | > 100 | 59 µM | > 100 | > 100 µM | > 100 µM | > 100 µM | > 100 µM | > 100 µM | > 100 µM | > 100 µM | 65 µM | 51.4 µM | > 100 µM |  |  |  |  |  |  | 
11 | Cc1ccc(OCC2OC(n3cnc4c(Cl)ncnc43)CC2Oc2ccc(C)cc2)cc1 (configuration not stated) | > 70.8 | 55.8 µM and 8.66 µM | > 81.1 | 12.7 µM and 7.95 µM | 24.9 µM and 3.73 µM | 18.3 µM and > 48.5 µM | 18.5 µM and 37.1 µM | 9.35 µM and 34.3 µM | 30.5 µM and 34.9 µM | 49.5 µM and > 100 µM | 4.18 µM and 5.78 µM | 30.2 µM and 38.1 µM | 36.5 µM and 40.8 µM | 20.4 µM and > 44.5 µM | 20.2 µM and 2.68 µM | 11.1 µM and 1.98 µM | 3.71 µM and 13.4 µM | 6.24 µM and 16 µM | 3.53 µM and 17.6 µM | 8.39 µM and 29.2 µM
12 | CN(CCc1ccc(Cl)c(Cl)c1)CCN(C)CCN1CCCC1 | 26.3 | 15 µM | 54.3 | 20.1 µM | 47.2 µM | 25.7 µM | 5.04 µM | 39.7 µM | 7.75 µM | 44.6 µM | 32.1 µM | 32.4 µM | > 72.7 µM |  |  |  |  |  |  | 
13 | N=C(N)SCCCN | > 100 | 29.1 µM | 73.4 | 3.16 µM | 26.5 µM | 15.8 µM | 26 µM | 54.1 µM | 30.1 µM | > 100 µM | > 69.9 µM | > 66.8 µM | > 62.1 µM |  |  |  |  |  |  | 
14 | CC(C)(C)OC(=O)NCC(=O)NC1C/C(=N\O)c2sccc21 (configuration not stated) | > 100 | > 100 µM | > 100 | > 100 µM |  | > 100 µM | > 100 µM | > 100 µM | > 100 µM | > 100 µM | > 100 µM | > 100 µM | > 100 µM |  |  |  |  |  |  | 
15 | COc1nc(OC)nc(-c2cccc(F)c2)n1 | 34.1 | 31.2 µM | 31.4 | > 100 µM | 30.7 µM | 32.9 µM | 30.7 µM | 40.2 µM | 29.8 µM | 33.8 µM | 11.4 µM | 30 µM | 31.7 µM |  |  |  |  |  |  | 
16 | CC(=O)O[C@H]1CN(S(=O)(=O)c2ccc(C)cc2)C[C@@H]1C1CCCCC1 | > 100 |  | > 100 | 62.7 µM | > 100 µM | > 100 µM | 48.3 µM | 58.5 µM | 31.9 µM | > 100 µM | 83.7 µM | 32 µM | 58.5 µM |  |  |  |  |  |  | 
17 | CC1(C)CCCCCCCCCC(C)(CCCCCCCCCCCCO)C1=O (configuration not stated) | 35.7 | 30.6 µM | 33.2 | 76.7 µM | 28.4 µM | 33.4 µM | 29.9 µM | 32.6 µM | 35.3 µM | 34 µM | 41.5 µM | 30.4 µM | 32.6 µM |  |  |  |  |  |  | 
